According to patent publication US11471537B2, “Oligomer extended insulin-Fc conjugates” (Novo Nordisk A/S, priority 2017, dated 2022):

Tests used:
[1] = test system: Sprague-Dawley rats; test: PD studies: blood glucose after subcutaneous dosing; assay type: in vivo; details: sc
Protocol: The pharmacodynamic effect of the Insulin Fc conjugates of the examples were investigated in normal male Sprague-Dawley rats weighing approx. 350 g at study start.
Animals had free access to food and water during the experiment period. They were dosed subcutaneously in the neck region with a dose of 30 nmol/kg (unless otherwise stated in the figures below). Blood samples for blood glucose and plasma insulin analysis were collected from the tongue veins up to 10 days post dosing. Blood glucose was measured using Biosen S Line (EKF).

[2] = test system: isolated rat adipocytes; test: Insulin-stimulated lipogenesis; assay type: cell-based; details: 1% HSA; relative to the activity of human insulin (100%)
Protocol: Insulin-stimulated lipogenesis was measured in isolated rat adipocytes in presence of 1% HSA as described in Moody A J, Stan M A, Stan M, Gliemann J. A Simple Free Fat Cell Bioassay for Insulin. Hormone And Metabolic Research. 1974; 6(1):12-6, see results in Table 6.

[3] = target: insulin receptor A (Homo sapiens, UniProt P06213); test: Insulin receptor affinity; assay type: binding; details: relative to affinity of human insulin for insulin receptor A (100%)
[4] = dose 30 nmol/kg, time 0.041667 days
[5] = dose 30 nmol/kg, time 0.125 days
[6] = dose 30 nmol/kg, time 0.291667 days

insulin receptor A, sequence (P06213 28-1370 isoform P06213-2 limits assumed): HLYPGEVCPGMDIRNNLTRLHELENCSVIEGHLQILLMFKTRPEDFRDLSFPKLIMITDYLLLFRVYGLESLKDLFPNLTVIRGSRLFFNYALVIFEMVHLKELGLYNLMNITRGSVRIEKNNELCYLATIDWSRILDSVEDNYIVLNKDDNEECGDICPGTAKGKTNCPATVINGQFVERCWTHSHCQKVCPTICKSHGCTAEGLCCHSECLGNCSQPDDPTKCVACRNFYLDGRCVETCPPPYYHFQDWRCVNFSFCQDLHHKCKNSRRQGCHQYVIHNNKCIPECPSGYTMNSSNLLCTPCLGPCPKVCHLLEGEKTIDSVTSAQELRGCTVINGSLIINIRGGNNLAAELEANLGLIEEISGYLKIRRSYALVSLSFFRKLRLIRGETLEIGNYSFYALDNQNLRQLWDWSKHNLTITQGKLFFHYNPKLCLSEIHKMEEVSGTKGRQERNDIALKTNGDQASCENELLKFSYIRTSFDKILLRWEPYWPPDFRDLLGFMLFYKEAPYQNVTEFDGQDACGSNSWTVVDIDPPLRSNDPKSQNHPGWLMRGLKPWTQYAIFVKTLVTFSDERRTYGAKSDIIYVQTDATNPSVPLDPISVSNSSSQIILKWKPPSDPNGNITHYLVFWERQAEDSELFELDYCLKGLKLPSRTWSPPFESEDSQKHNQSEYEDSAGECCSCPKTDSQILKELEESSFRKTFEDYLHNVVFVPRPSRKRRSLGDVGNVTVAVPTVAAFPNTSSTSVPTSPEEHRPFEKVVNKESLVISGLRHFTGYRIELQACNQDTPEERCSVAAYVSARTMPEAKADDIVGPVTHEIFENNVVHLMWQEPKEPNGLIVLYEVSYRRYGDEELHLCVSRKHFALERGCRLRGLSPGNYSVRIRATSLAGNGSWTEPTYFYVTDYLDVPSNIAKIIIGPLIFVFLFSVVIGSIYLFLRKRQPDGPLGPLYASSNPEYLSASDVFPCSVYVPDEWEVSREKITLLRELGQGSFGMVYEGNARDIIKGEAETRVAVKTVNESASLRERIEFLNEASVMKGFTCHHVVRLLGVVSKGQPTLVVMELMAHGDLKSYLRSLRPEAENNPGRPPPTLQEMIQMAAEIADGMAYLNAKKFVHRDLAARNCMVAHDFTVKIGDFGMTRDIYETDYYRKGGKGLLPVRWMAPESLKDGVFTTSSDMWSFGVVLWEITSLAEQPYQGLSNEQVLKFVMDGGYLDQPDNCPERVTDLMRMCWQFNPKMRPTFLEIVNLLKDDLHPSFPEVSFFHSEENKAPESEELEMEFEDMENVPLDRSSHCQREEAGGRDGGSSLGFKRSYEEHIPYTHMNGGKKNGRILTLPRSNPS
insulin receptor A, sequence (P06213 763-1382 partner limits assumed): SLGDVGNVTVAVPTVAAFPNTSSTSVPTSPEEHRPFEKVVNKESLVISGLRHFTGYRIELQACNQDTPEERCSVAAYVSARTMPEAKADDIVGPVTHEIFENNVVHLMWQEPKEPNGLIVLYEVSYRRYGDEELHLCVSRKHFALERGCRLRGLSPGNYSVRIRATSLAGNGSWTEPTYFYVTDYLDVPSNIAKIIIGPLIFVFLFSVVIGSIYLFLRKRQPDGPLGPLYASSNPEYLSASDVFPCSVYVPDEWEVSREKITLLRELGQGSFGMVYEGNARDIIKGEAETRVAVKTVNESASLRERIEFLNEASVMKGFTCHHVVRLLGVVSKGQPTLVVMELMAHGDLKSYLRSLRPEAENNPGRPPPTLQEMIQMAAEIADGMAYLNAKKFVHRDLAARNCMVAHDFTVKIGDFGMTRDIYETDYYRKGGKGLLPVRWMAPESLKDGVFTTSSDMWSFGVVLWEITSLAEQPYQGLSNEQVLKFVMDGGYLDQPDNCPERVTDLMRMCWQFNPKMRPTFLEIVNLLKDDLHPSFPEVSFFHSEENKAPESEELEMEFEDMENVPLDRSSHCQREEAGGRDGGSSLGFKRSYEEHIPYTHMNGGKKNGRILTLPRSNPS

“(A14A, A21G, A22(GQAP)18, A94G, A95Q, A96A, A97K^, A98P, B29R, desB30 human insulin)/(227A, 234A, 235K, 297E, 315Q, 384Q, des447 hIgG4-Fc(228-447))4-[bis[2-[(2-acetyl)amino]ethyl]amino]-4-oxo-butanoyl Conjugate [Example 5.25]” was tested, and the Average blood glucose ([1]; dose 30 nmol/kg, time 0 days) was 5.724 mM, the Average blood glucose [1, 4] was 6.104 mM and the Average blood glucose [1, 5] was 4.9 mM. The Average blood glucose [1, 6] was 4.032 mM, the Average blood glucose ([1]; dose 30 nmol/kg, time 1 day) was 3.28 mM and the Average blood glucose ([1]; dose 30 nmol/kg, time 2 days) was 3.864 mM. The Average blood glucose ([1]; dose 30 nmol/kg, time 3 days) was 6.224 mM, the Average blood glucose ([1]; dose 30 nmol/kg, time 4 days) was 5.976 mM and the Average blood glucose ([1]; dose 30 nmol/kg, time 5 days) was 6.036 mM. For the same substance, the Average blood glucose ([1]; dose 30 nmol/kg, time 6 days) was 6.496 mM, the Average blood glucose ([1]; dose 30 nmol/kg, time 7 days) was 6.14 mM and the Average blood glucose ([1]; dose 30 nmol/kg, time 8 days) was 6.452 mM. For the same substance, the Average blood glucose ([1]; dose 30 nmol/kg, time 9 days) was 6.528 mM, the Average blood glucose ([1]; dose 30 nmol/kg, time 10 days) was 6.144 mM and the “Lipogenesis in rat adipocytes [Potency (%)] Mean Value” [2] was 2.08%. The “Insulin receptor affinity [IC50 relative to HI (%)] Mean Value” [3] was 4.49%.
In the case of “(A14E, A21G, A22(GQAP)18, A94G, A95Q, A96A, A97K^, A98P, B16E, B25H, B29R, desB30 human insulin)/(227A, 234A, 235K, 297E, 315Q, 384Q, des447 hIgG4-Fc(228-447))4-[bis[2-[(2-acetyl)amino]ethyl]amino]-4-oxo-butanoyl Conjugate [Example 5.31]”, the “Lipogenesis in rat adipocytes [Potency (%)] Mean Value” [2] is reported as 0.60% and the “Insulin receptor affinity [IC50 relative to HI (%)] Mean Value” [3] is reported as 0.47%.
In the case of “(A14E, A21G, A22(GQAP)24, A118G, A119Q, A120A, A121K^, A122P, B25H, B29R, desB30 human insulin)/(227A, 234A, 235K, 297E, 315Q, 3840, des447 hIgG4-Fc(228-447))3,5-bis[(2-acetyl)amino]benzoyl Conjugate [Example 5.22]”, the “Lipogenesis in rat adipocytes [Potency (%)] Mean Value” [2] is reported as 4.64% and the “Insulin receptor affinity [IC50 relative to HI (%)] Mean Value” [3] is reported as 3.56%.
For “(A14E, A21G, A22(GQAP)24, A118G, A119Q, A120A, A121K^, A122P, B29R, desB30 human insulin)/(227A, 234A, 235K, 297E, 315Q, 384Q, des447 hIgG4-Fc(228-447))3,5-bis[(2-acetyl)amino]benzoyl Conjugate [Example 5.29]”, the “Lipogenesis in rat adipocytes [Potency (%)] Mean Value” [2] was 2.64% and the “Insulin receptor affinity [IC50 relative to HI (%)] Mean Value” [3] was 3.06%.
“(A14E, A21G, A22(GQEP)19, 98K^, A99P, B25H, B29R, desB30 human insulin)/(226A, 227G, 228P, 234A, 235K, des447 hIgG4-Fc(228-447))3,5-bis[(2-acetyl)amino]benzoyl Conjugate [Example 5.33]” showed an Average blood glucose ([1]; dose 30 nmol/kg, time 0 days) of 5.496 mM, an Average blood glucose [1, 4] of 5.284 mM and an Average blood glucose [1, 5] of 4.716 mM. It also gave an Average blood glucose [1, 6] of 3.744 mM, an Average blood glucose ([1]; dose 30 nmol/kg, time 1 day) of 3.744 mM and an Average blood glucose ([1]; dose 30 nmol/kg, time 2 days) of 2.232 mM. The Average blood glucose ([1]; dose 30 nmol/kg, time 3 days) was 1.844 mM, the Average blood glucose ([1]; dose 30 nmol/kg, time 4 days) was 2.432 mM and the Average blood glucose ([1]; dose 30 nmol/kg, time 5 days) was 3.98 mM. The Average blood glucose ([1]; dose 30 nmol/kg, time 6 days) was 6.132 mM, the Average blood glucose ([1]; dose 30 nmol/kg, time 7 days) was 5.712 mM and the Average blood glucose ([1]; dose 30 nmol/kg, time 8 days) was 5.38 mM. The Average blood glucose ([1]; dose 30 nmol/kg, time 9 days) was 5.316 mM, the Average blood glucose ([1]; dose 30 nmol/kg, time 10 days) was 5.44 mM and the “Lipogenesis in rat adipocytes [Potency (%)] Mean Value” [2] was 5.44%. The “Insulin receptor affinity [IC50 relative to HI (%)] Mean Value” [3] was 3.85%.
“(A14E, A21G, A22(GQEP)19, A98K^, A99P, B25H, B29R, desB30 human insulin)/(227A, 234A, 235K hIgG4-Fc(228-447))4-[bis[2-[(2-acetyl)amino]ethyl]amino]-4-oxo-butanoyl Conjugate [Example 5.1]” showed an Average blood glucose ([1]; dose 30 nmol/kg, time 0 days) of 6.68 mM, an Average blood glucose [1, 4] of 5.888 mM and an Average blood glucose [1, 5] of 4.988 mM. It also gave an Average blood glucose [1, 6] of 3.752 mM, an Average blood glucose ([1]; dose 30 nmol/kg, time 1 day) of 2.524 mM and an Average blood glucose ([1]; dose 30 nmol/kg, time 2 days) of 2.036 mM. The Average blood glucose ([1]; dose 30 nmol/kg, time 3 days) was 2.964 mM, the Average blood glucose ([1]; dose 30 nmol/kg, time 4 days) was 3.244 mM and the Average blood glucose ([1]; dose 30 nmol/kg, time 6 days) was 6.508 mM. For the same substance, the Average blood glucose ([1]; dose 30 nmol/kg, time 7 days) was 6.18 mM, the Average blood glucose ([1]; dose 30 nmol/kg, time 8 days) was 5.996 mM and the “Lipogenesis in rat adipocytes [Potency (%)] Mean Value” [2] was 6.69%. For the same substance, the “Insulin receptor affinity [IC50 relative to HI (%)] Mean Value” [3] was 5.07%.
“A14E, A21G, A22(GQAPGQAPGQAPGQEP)6-GQAP, A122K^, A123P, B25H, B29R, desB30 human insulin/(227A, 234A, 235K, 297E, 315Q, 384Q, des447 hIgG4-Fc(228-447))4-[bis[2-[(2-acetyl)amino]ethyl]amino]-4-oxo-butanoyl Conjugate [Example 5.20]” was tested, and the “Lipogenesis in rat adipocytes [Potency (%)] Mean Value” [2] was 5.41% and the “Insulin receptor affinity [IC50 relative to HI (%)] Mean Value” [3] was 5.49%.
“A14E, A21G, A22(GQAPGQAPGQEP)6-GQAP, A98K^, A99P, B3Q, B25H, B29R, desB30 human insulin/(227A, 234A, 235K hIgG4-Fc(228-447))4-[bis[2-[(2-acetyl)amino]ethyl]amino]-4-oxo-butanoyl Conjugate [Example 5.5]” was tested, and the Average blood glucose ([1]; dose 30 nmol/kg, time 0 days) was 5.266 mM, the Average blood glucose [1, 4] was 5.276 mM and the Average blood glucose [1, 5] was 4.894 mM. For the same substance, the Average blood glucose ([1]; dose 30 nmol/kg, time 0.208333 days) was 4.422 mM, the Average blood glucose [1, 6] was 4.358 mM and the Average blood glucose ([1]; dose 30 nmol/kg, time 1 day) was 3.106 mM. For the same substance, the Average blood glucose ([1]; dose 30 nmol/kg, time 2 days) was 2.33 mM, the Average blood glucose ([1]; dose 30 nmol/kg, time 3 days) was 2.786 mM and the Average blood glucose ([1]; dose 30 nmol/kg, time 4 days) was 4.764 mM. For the same substance, the Average blood glucose ([1]; dose 30 nmol/kg, time 5 days) was 5.842 mM, the Average blood glucose ([1]; dose 30 nmol/kg, time 6 days) was 6.016 mM and the Average blood glucose ([1]; dose 30 nmol/kg, time 7 days) was 5.76 mM. The Average blood glucose ([1]; dose 30 nmol/kg, time 8 days) was 5.794 mM, the “Lipogenesis in rat adipocytes [Potency (%)] Mean Value” [2] was 2.21% and the “Insulin receptor affinity [IC50 relative to HI (%)] Mean Value” [3] was 3.34%.
Substance “A14E, A21G, A22(GQAPGQAPGQEP)6-GQAP, A98K^, A99P, B3Q, B25H, B29R, desB30 human insulin/(227A, 234A, 235K, 297E, 315Q, 384Q, des447 hIgG4-Fc(228-447))4-[bis[2-[(2-acetyl)amino]ethyl]carbamoylamino]butanoyl Conjugate [Example 5.24]” has an Average blood glucose ([1]; dose 30 nmol/kg, time 0 days) of 5.604 mM, an Average blood glucose [1, 4] of 5.98 mM and an Average blood glucose [1, 5] of 5.172 mM. For the same substance, the Average blood glucose [1, 6] was 4.164 mM, the Average blood glucose ([1]; dose 30 nmol/kg, time 1 day) was 2.924 mM and the Average blood glucose ([1]; dose 30 nmol/kg, time 2 days) was 3.128 mM. The Average blood glucose ([1]; dose 30 nmol/kg, time 3 days) was 3.352 mM, the Average blood glucose ([1]; dose 30 nmol/kg, time 4 days) was 6.272 mM and the Average blood glucose ([1]; dose 30 nmol/kg, time 5 days) was 5.788 mM. For the same substance, the Average blood glucose ([1]; dose 30 nmol/kg, time 6 days) was 5.824 mM, the Average blood glucose ([1]; dose 30 nmol/kg, time 7 days) was 6.092 mM and the Average blood glucose ([1]; dose 30 nmol/kg, time 8 days) was 6.016 mM. For the same substance, the Average blood glucose ([1]; dose 30 nmol/kg, time 9 days) was 5.872 mM, the Average blood glucose ([1]; dose 30 nmol/kg, time 10 days) was 6.072 mM and the “Lipogenesis in rat adipocytes [Potency (%)] Mean Value” [2] was 3.83%. For the same substance, the “Insulin receptor affinity [IC50 relative to HI (%)] Mean Value” [3] was 4.60%.
For “A14E, A21G, A22(GQEP)3, A34G, A350, A36E, A37K^, A38P, B25H, B29R, desB30 human insulin/(227A, 234A, 235K hIgG4-Fc(228-447))4-[bis[2-[(2-acetyl)amino]ethyl]amino]-4-oxo-butanoyl Conjugate [Example 5.10]”, the “Insulin receptor affinity [IC50 relative to HI (%)] Mean Value” [3] was 2.47%.
In the case of “A14E, A21G, A22(GQEP)6, A46K^, A47P, B25H, B29R, desB30 human insulin/(227A, 234A, 235K, 297E, 315Q, 384Q, des447 hIgG4-Fc(228-447))4-[bis[2-[(2-acetyl)amino]ethyl]amino]-4-oxo-butanoyl Conjugate [Example 5.32]”, the “Lipogenesis in rat adipocytes [Potency (%)] Mean Value” [2] is reported as 3.72% and the “Insulin receptor affinity [IC50 relative to HI (%)] Mean Value” [3] is reported as 2.16%.
“A14E, A21G, A22(GQEP)19, A98K^, A99P, B3Q, B25H, B29R, desB30 human insulin/(227A, 234A, 235K hIgG4-Fc(228-447))4-[bis[2-[(2-acetyl)amino]ethyl]amino]-4-oxo-butanoyl Conjugate [Example 5.6]” showed an Average blood glucose ([1]; dose 30 nmol/kg, time 0 days) of 6.46 mM, an Average blood glucose [1, 4] of 6.024 mM and an Average blood glucose [1, 5] of 5.092 mM. It also gave an Average blood glucose [1, 6] of 3.90 mM, an Average blood glucose ([1]; dose 30 nmol/kg, time 1 day) of 2.808 mM and an Average blood glucose ([1]; dose 30 nmol/kg, time 2 days) of 2.464 mM. For the same substance, the Average blood glucose ([1]; dose 30 nmol/kg, time 3 days) was 2.996 mM, the Average blood glucose ([1]; dose 30 nmol/kg, time 4 days) was 2.996 mM and the Average blood glucose ([1]; dose 30 nmol/kg, time 6 days) was 5.98 mM. For the same substance, the Average blood glucose ([1]; dose 30 nmol/kg, time 7 days) was 5.82 mM, the Average blood glucose ([1]; dose 30 nmol/kg, time 8 days) was 6.012 mM and the “Insulin receptor affinity [IC50 relative to HI (%)] Mean Value” [3] was 5.07%.
insulin degludec [reference compound] was tested, and the “time over which blood glucose was lowered” value ([1]; 3-fold higher dose (90 nmol/kg)) was “less than half a day”, the Average blood glucose ([1]; dose 90 nmol/kg, time 0 days) was 5.382 mM and the Average blood glucose ([1]; dose 90 nmol/kg, time 0.020833 days) was 4.104 mM. It also gave an Average blood glucose ([1]; dose 90 nmol/kg, time 0.041667 days) of 3.182 mM, an Average blood glucose ([1]; dose 90 nmol/kg, time 0.083333 days) of 2.718 mM and an Average blood glucose ([1]; dose 90 nmol/kg, time 0.166667 days) of 2.336 mM. It also gave an Average blood glucose ([1]; dose 90 nmol/kg, time 0.25 days) of 3.424 mM, an Average blood glucose ([1]; dose 90 nmol/kg, time 0.3336 days) of 4.292 mM and an Average blood glucose ([1]; dose 90 nmol/kg, time 0.5 days) of 5.302 mM. It also gave an Average blood glucose ([1]; dose 90 nmol/kg, time 1 day) of 5.758 mM.
